Measured values taken from patent US20240279202A1 (NURIX THERAPEUTICS, INC., priority 2021, published 2024).
Structures can show the parent of a compound that is named as a salt.

How the values were obtained:
[1] = Mouse PK analysis (blood/plasma concentration after oral administration); format: in vivo; settings: mice, oral; for AUC(0-t) / Cmax / Tmax: mouse, plasma; for detected in plasma through (FIG. 4B): plasma LC/MS/MS
Method in brief: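 Mice were dosed by oral gavage at 90 mg/kg with blood sampled at 1, 2 and 6 h; a second study used oral dosing with plasma taken at 6 or 24 h. Plasma levels were measured by LC/MS/MS (acetonitrile precipitation, internal-standard curve, positive ESI MRM), and Cmax, Tmax and AUClast were derived by noncompartmental analysis.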

ITK = target: T1, ITK (Homo sapiens, UniProt Q08881); assay: ITK degradation HiBiT assay; format: cell-based; parameters: expressed in transfected cells; host or cells: Molt4 (ATCC CRL-1552), monoclonal clone 1C10, engineered to carry the HiBiT tag; settings: 4 hrs; for Dmax: MOLT-4, C-terminal HiBiT-tagged Molt4 cells; for DC50: C-terminal HiBiT-tagged Molt4 cells
T1 sequence (Q08881 1-620): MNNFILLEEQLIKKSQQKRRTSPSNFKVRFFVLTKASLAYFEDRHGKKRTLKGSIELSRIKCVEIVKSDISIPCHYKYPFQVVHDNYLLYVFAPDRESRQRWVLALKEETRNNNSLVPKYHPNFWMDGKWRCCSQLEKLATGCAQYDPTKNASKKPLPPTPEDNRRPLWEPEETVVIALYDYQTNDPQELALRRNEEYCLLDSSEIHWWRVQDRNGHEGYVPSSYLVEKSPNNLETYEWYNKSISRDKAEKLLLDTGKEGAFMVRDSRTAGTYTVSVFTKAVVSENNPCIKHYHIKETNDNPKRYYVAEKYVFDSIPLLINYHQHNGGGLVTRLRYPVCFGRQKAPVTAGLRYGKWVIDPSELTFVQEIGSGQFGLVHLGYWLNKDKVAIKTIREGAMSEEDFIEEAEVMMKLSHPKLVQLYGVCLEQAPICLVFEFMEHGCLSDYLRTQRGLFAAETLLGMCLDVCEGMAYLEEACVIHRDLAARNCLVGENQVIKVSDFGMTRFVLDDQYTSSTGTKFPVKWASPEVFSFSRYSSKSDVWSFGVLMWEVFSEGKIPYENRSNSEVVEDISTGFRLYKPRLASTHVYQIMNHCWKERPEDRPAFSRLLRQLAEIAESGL
Method in brief: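 C-terminal HiBiT-tagged Molt4 cells (clone 1C10) treated 4 h at 32° C with an 11-point, 5-fold compound dilution series (0.5% DMSO). HiBiT lytic detection with LgBiT then luminescence read; % ITK remaining versus concentration fit by four-parameter variable-slope model to give DC50 and Dmax.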

| AUC(0-t) [1] | Cmax [1] | Tmax [1] | Dmax (ITK) | DC50 (ITK) | detected in plasma through (FIG. 4B) [1] | SMILES |
| --- | --- | --- | --- | --- | --- | --- |
| 1.26 µM·h | 283 nM | 3.5 h | 42% |  |  | CN(C(=O)CCC1CCN(c2ccc(C(=O)NC3CCC(=O)NC3=O)nc2)C1)c1ccc2cc(-c3n[nH]c4c3C[C@@H]3C(F)(F)[C@]3(C)C4)[nH]c2c1 (stereo partly drawn) [Compound 69, 5-(3-(3-((2-((4aS,5aR)-5,5-difluoro-5a-methyl-1,4,4a,5,5a,6-hexahydrocyclopropa[f]indazol-3-yl)-1H-indol-6-yl)(methyl)amino)-3-oxopropyl)pyrrolidin-1-yl)-N-(2,6-dioxopiperidin-3-yl)picolinamide] |
| 1.53 µM·h | 585 nM | 6 h | 90% | 0.23 nM | 6 h | Cn1c(=O)n(C2CCC(=O)NC2=O)c2cccc(N3CCC(CN4CCC5(CC4)CCN(c4ccc6cc(-c7n[nH]c8c7C[C@@H]7C(F)(F)[C@]7(C)C8)[nH]c6c4)C5=O)CC3)c21 (stereo partly drawn) [Compound 16, 3-(4-(4-((2-(2-((4aS,5aR)-5,5-difluoro-5a-methyl-1,4,4a,5,5a,6-hexahydrocyclopropa[f]indazol-3-yl)-1H-indol-6-yl)-1-oxo-2,8-diazaspiro[4.5]decan-8-yl)methyl)piperidin-1-yl)-3-methyl-2-oxo-2,3-dihydro-1H-benzo[d]imidazol-1-yl)piperidine-2,6-dione] |
|  |  |  |  | < 0.001 nM | 24 h | C[C@@H](C(=O)N(C)c1ccc2cc(-c3n[nH]c4c3C[C@@H]3C(F)(F)[C@]3(C)C4)[nH]c2c1)N1CCN(CC2CCN(c3ccc(C4CCC(=O)NC4=O)cn3)CC2)CC1 (stereo partly drawn) [Compound 17, (2S)—N-(2-((4aS,5aR)-5,5-difluoro-5a-methyl-1,4,4a,5,5a,6-hexahydrocyclopropa[f]indazol-3-yl)-1H-indol-6-yl)-2-(4-((1-(5-(2,6-dioxopiperidin-3-yl)pyridin-2-yl)piperidin-4-yl)methyl)piperazin-1-yl)-N-methylpropanamide] |
| 0.02 µM·h | 9 nM | 4 h | 86% | 0.12 nM |  | CN(C(=O)CN1CCC2(CC1)CCN(c1ccc3c(c1)C(=O)N(C1CCC(=O)NC1=O)C3=O)C2)c1ccc2cc(-c3n[nH]c4c3C[C@@H]3C(F)(F)[C@]3(C)C4)[nH]c2c1 (stereo partly drawn) [Compound 72, N-(2-((4aS,5aR)-5,5-difluoro-5a-methyl-1,4,4a,5,5a,6-hexahydrocyclopropa[f]indazol-3-yl)-1H-indol-6-yl)-2-(2-(2-(2,6-dioxopiperidin-3-yl)-1,3-dioxoisoindolin-5-yl)-2,8-diazaspiro[4.5]decan-8-yl)-N-methylacetamide] |
| 0.198 µM·h | 80.3 nM | 1 h | 86% | 0.29 nM |  | C[C@@H](C(=O)N(C)c1ccc2cc(-c3n[nH]c4c3CCC(C)(C)C4)[nH]c2c1)N1CCN(C[C@H]2CCN(c3ccc4c(c3)CN(C3CCC(=O)NC3=O)C4=O)C2)CC1 (stereo partly drawn) [Compound 12, (2S)—N-(2-(6,6-dimethyl-4,5,6,7-tetrahydro-1H-indazol-3-yl)-1H-indol-6-yl)-2-(4-(((3R)-1-(2-(2,6-dioxopiperidin-3-yl)-1-oxoisoindolin-5-yl)pyrrolidin-3-yl)methyl)piperazin-1-yl)-N-methylpropanamide] |
| 3.14 µM·h | 743 nM | 4 h | 93% | 0.35 nM |  | C[C@@]12Cc3[nH]nc(-c4cc5ccc(N6CCC7(CCN(Cc8ccc9c(c8)C(=O)N(C8CCC(=O)NC8=O)C9=O)CC7)C6=O)cc5[nH]4)c3C[C@@H]1C2(F)F (stereo partly drawn) [Compound 15, 5-((2-(2-((4aS,5aR)-5,5-difluoro-5a-methyl-1,4,4a,5,5a,6-hexahydrocyclopropa[f]indazol-3-yl)-1H-indol-6-yl)-1-oxo-2,8-diazaspiro[4.5]decan-8-yl)methyl)-2-(2,6-dioxopiperidin-3-yl)isoindoline-1,3-dione hydrochloride] |
| 0.927 µM·h | 251 nM | 4 h | 90% | 2.4 nM |  | Cn1c(=O)n(C2CCC(=O)NC2=O)c2cccc(N3CCC(CN4CCC5(CC4)CCN(c4ccc6cc(-c7n[nH]c8c7CCC(C)(C)C8)[nH]c6c4)C5=O)CC3)c21 (stereo not shown) [Compound 13, 3-(4-(4-((2-(2-(6,6-dimethyl-4,5,6,7-tetrahydro-1H-indazol-3-yl)-1H-indol-6-yl)-1-oxo-2,8-diazaspiro[4.5]decan-8-yl)methyl)piperidin-1-yl)-3-methyl-2-oxo-2,3-dihydro-1H-benzo[d]imidazol-1-yl)piperidine-2,6-dione] |

| SMILES | AUC(0-t) [1] | Cmax [1] | Tmax [1] | Dmax (ITK) | DC50 (ITK) | detected in plasma through (FIG. 4B) [1] |
| --- | --- | --- | --- | --- | --- | --- |
| CN(c1ccc2cc(-c3n[nH]c4c3C[C@@H]3C(F)(F)[C@]3(C)C4)[nH]c2c1)C(=O)[C@H]1C[C@]2(CCN(c3ccc4c(c3)C(=O)N([C@H]3CCC(=O)NC3=O)C4=O)C2)C1 (racemic) [Compound 71b, (2s,4s)-N-[2-[(4aS,5aR)-5,5-difluoro-5a-methyl-1H,4H,4aH,6H-cyclopropa[f]indazol-3-yl]-1H-indol-6-yl]-6-[2-[(3RS)-2,6-dioxopiperidin-3-yl]-1,3-dioxoisoindol-5-yl]-N-methyl-6-azaspiro[3.4]octane-2-carboxamide] | 0.78 µM·h | 223 nM | 1.5 h | 85% | 2 nM |  |
